Results reported in PMC4076215, “Nickel(II) Complex of Polyhydroxybenzaldehyde N4-Thiosemicarbazone Exhibits Anti-Inflammatory Activity by Inhibiting NF-κB Transactivation” (PLoS ONE, 2014).

Legend:
HeLa S3 cells = assay: Cell proliferation (MTT) assay, HeLa S3
Experimental: A total number of 1.0×10^4 cells per well were seeded into a 96-well plate and incubated overnight at 37°C in 5% CO2. The next day, the cells were treated with a two-fold serial dilution of compounds. MTT assays were performed as described [27]. After 48 h, (4,5-dimethylthiazol-2-yl-2,5-diphenyltetrazoliumbromide) was added at 2 mg/ml. After 3 h of incubation at 37°C in 5% CO2, DMSO was added to dissolve the formazan crystals. The plates were then read in Chameleon multitechnology microplate reader (Hidex, Turku, Finland) at 570 nm absorbance. The ratio of the absorbance of treated cells to the absorbance of DMSO-treated control cells was determined as percentage cell viability.
To examine whether synthesized Ni(II) thiosemicarbazone ligands or Ni(II)-phosphine complexes were cytotoxic, we treated RAW264.7 (leukemic monocyte macrophage) and HeLa S3 (cervical adenocarcinoma) cells with these compounds for 48 h. The cell viability was determined with MTT assays [33].

[1] = Liver functional test (serum) after oral dosing; assay type: in vivo, C57BL/6 mice; details: after two weeks
Experimental: Liver functional test. C57BL/6 mice at age 8-12 weeks old were administrated orally with control PBS or with various concentrations (125 mg/kg, 250 mg/kg and 500 mg/kg) of complex 5. n= 6 (3 male and 3 female mice)/group. After two weeks, sera were collected from the mice for liver functional test.
Shown were mean ± SD. TBIL: Total Bilirubin, BC: Conjugated
Bilirubin, ALP: Alkaline Phophatase, ALT: Alanine Aminotransferase, AST: Aspartate Transaminase, GGT: G-Glutamyl Transferase.

For `NC1=[S+][Ni-2]2([P+](c3ccccc3)(c3ccccc3)c3ccccc3)[O]c3c(O)cccc3C=[N+]2N1.[Cl-]` [complex 5, {2-[(2-Carbamothiolylhydrazin-1-ylidene-[kappa]2N1,S)methyl]-6-hydroxyphenolato-[kappa]O1}(triphenylphosphine-[kappa]P)nickel(II) chloride], the Cell viability (HeLa S3 cells; HeLa S3, 6.25 µg/ml, 4 h treatment) was over 90%, the “IC50 (cell viability, MTT)” value (HeLa S3 cells; HeLa S3 cells, 48 h treatment) was 29.31 ± 1.10 µg/mL and the “ALP (Alkaline Phophatase)” value ([1]; 125 mg/kg oral) was 192.00 IU/L. For the same compound, the “ALT (Alanine Aminotransferase)” value ([1]; 125 mg/kg oral) was 69.00 IU/L, the “AST (Aspartate Transaminase)” value ([1]; 125 mg/kg oral) was 421.00 IU/L and the Albumin ([1]; 125 mg/kg oral) was 18.00 g/L. The “BC (Conjugated Bilirubin)” value ([1]; 125 mg/kg oral) was under 1 µmol/L, the “GGT (G-Glutamyl Transferase)” value ([1]; 125 mg/kg oral) was under 3 IU/L and the Globulin ([1]; 125 mg/kg oral) was 42.00 g/L. For the same compound, the “TBIL (Total Bilirubin)” value ([1]; 125 mg/kg oral) was 3.00 µmol/L, the “Total Protein” value ([1]; 125 mg/kg oral) was 60.00 g/L and the “ALP (Alkaline Phophatase)” value ([1]; 250 mg/kg oral) was 195.00 IU/L. The “ALT (Alanine Aminotransferase)” value ([1]; 250 mg/kg oral) was 70.00 IU/L, the “AST (Aspartate Transaminase)” value ([1]; 250 mg/kg oral) was 414.00 IU/L and the Albumin ([1]; 250 mg/kg oral) was 17.00 g/L. The “BC (Conjugated Bilirubin)” value ([1]; 250 mg/kg oral) was under 1 µmol/L, the “GGT (G-Glutamyl Transferase)” value ([1]; 250 mg/kg oral) was under 3 IU/L and the Globulin ([1]; 250 mg/kg oral) was 42.00 g/L. For the same compound, the “TBIL (Total Bilirubin)” value ([1]; 250 mg/kg oral) was 2.50 µmol/L, the “Total Protein” value ([1]; 250 mg/kg oral) was 59.00 g/L and the “ALP (Alkaline Phophatase)” value ([1]; 500 mg/kg oral) was 219.50 IU/L. For the same compound, the “ALT (Alanine Aminotransferase)” value ([1]; 500 mg/kg oral) was 70.00 IU/L, the “AST (Aspartate Transaminase)” value ([1]; 500 mg/kg oral) was 316.50 ± 78.49 IU/L and the Albumin ([1]; 500 mg/kg oral) was 16.00 g/L. For the same compound, the “BC (Conjugated Bilirubin)” value ([1]; 500 mg/kg oral) was under 1 µmol/L, the “GGT (G-Glutamyl Transferase)” value ([1]; 500 mg/kg oral) was under 3 IU/L and the Globulin ([1]; 500 mg/kg oral) was 37.50 g/L. The “TBIL (Total Bilirubin)” value ([1]; 500 mg/kg oral) was 3.00 µmol/L and the “Total Protein” value ([1]; 500 mg/kg oral) was 53.50 g/L.
